The record followed here is US20050014675A1, “Cell migration inhibitor” (priority 2001, published 2005).

Where a name gives a salt, the structure may show the parent alone. Non-standard residues stand in square brackets, D forms with d. Residues, ends and D or L forms follow the SMILES beside them. No end group written: not given here. dTrp(2-Me) = Cc1[nH]c2ccccc2c1C[C@@H](N)C(=O)O; d2Nal = N[C@H](Cc1ccc2ccccc2c1)C(=O)O Where only a bound is given, the exact number is not on record here.

What all share (format): cell-based
In test [1] the test system is human vascular smooth muscle cells. The experiment in a line: PDGF-induced migration of human vascular smooth muscle cells (Boyden's chamber). The conditions noted are these: for action on the PDGF-induced migration of vascular smooth muscle cells (summary of Test 1): Test 1, summary statement; for suppressive action on PDGF-induced migration / action on PDGF-induced migration: human vascular smooth muscle cells, FIG. 4; for suppressive action on PDGF-induced migration: compound at 10 nM. As to the method: (§1) Human vascular smooth muscle cells were cultured in SmBM with the additive factors in a culture incubator (37° C., 5% CO2/95% air) and cells at the 5th-9th passage were used in the test. Rabbit vascular smooth muscle cells were obtained by an explant technique from the media of rabbit thoracic aorta and cultured in DMEM with 10% fetal bovine serum; cells at the 5th-7th passage were used in the test.
(§2) Cells that proliferated to confluence were detached with trypsin, washed twice with an additive factor free medium, dispersed in SmBM containing 0.1% fetal bovine serum and prepared to a cell density of 5×10^5 cells/mL. Migration of cells was assayed according to Koyama et al. method (J. Biol. Chem. (1993) 268:13301-13308) using a 48-well Boyden's chamber (Neuro probe). To be more specific, 28 μL of SmBM containing 10 ng/mL of PDGF and 0.1% FBS was placed in the lower chamber and 50 μL of a cell dispersion preliminarily incubated with each assay compound for 10 minutes was placed in the upper chamber. The upper chamber and the lower chamber were separated by a polycarbonate filter (having pores 8 μm in diameter) precoated with type I collagen (Nitta Gelatin Inc.) Since the placement of the cell dispersion, the Boyden's chamber was incubated in a culture incubator (37° C., 5% CO2/95% air) for 4 hours. The cells on the upper side of the filter were scraped off and the cells that had migrated to the lower side of the filter were fixed in methanol and stained with Diff-Quick staining solution (International Reagents Corporation). The filter had been air-dried on a glass slide and sealed with Enteran New. The cells were counted under a high-power microscope (×200) in 4 fields per well and the number of cells that had migrated was averaged to determine the migration activity.
The result of each treated group was represented by the mean±standard deviation for 3 wells. Statistical significance was estimated by one-way ANOVA, if p value was less than 5%, followed by Dunnett method to compare between vehicle-treated group and the others in the presence of a migration inducer. Values of p less than 5% were considered to be significant.

The subject of test [2] is Human mesangial cells. The test can be described thus: PDGF-induced migration of human mesangial cells (Boyden's chamber). As to the method: as §2, with “activity. […]” for “activity.”
The subject of test [3] is rabbit vascular smooth muscle cells. The test can be described thus: PDGF-induced migration of rabbit vascular smooth muscle cells (Boyden's chamber). The conditions noted are these: treatment with 10 nM, FIG. 3. The procedure:
as §1
Cells that proliferated to confluence were detached with trypsin, washed twice with an additive factor free medium, dispersed in SmBM containing 0.1% fetal bovine serum and prepared to a cell density of 5×10^5 cells/mL. Migration of cells was assayed according to Koyama et al. method (J. Biol. Chem. (1993) 268:13301-13308) using a 48-well Boyden's chamber (Neuro probe). To be more specific, 28 μL of SmBM containing 10 ng/mL of PDGF and 0.1% FBS was placed in the lower chamber and 50 μL of a cell dispersion preliminarily incubated with each assay compound for 10 minutes was placed in the upper chamber. […] The cells were counted under a high-power microscope (×200) in 4 fields per well and the number of cells that had migrated was averaged to determine the migration activity. […]

On to `CN1N=C2CCN(C(=O)[C@@H](COCc3ccccc3)NC(=O)C(C)(C)N)C[C@@]2(Cc2ccccc2)C1=O` [CP-424,391, capromorelin], for which, in test [1], the “action on the PDGF-induced migration of vascular smooth muscle cells (summary of Test 1)” value (shortened to “action on the PDGF-induced migration”) is listed as “potent inhibitory action” and the “suppressive action on PDGF-induced migration” value (“suppressive action” for short) is “significant suppressive action”.
Turning to `C[C@H](NC(=O)[C@@H](Cc1ccc2ccccc2c1)NC(=O)[C@@H](C)N)C(=O)N[C@@H](Cc1c[nH]c2ccccc12)C(=O)N[C@H](Cc1ccccc1)C(=O)N[C@@H](CCCCN)C(N)=O` [KP-102, Pralmorelin dihydrochloride] (H-[dA][d2Nal]AW[dF]K-NH2), in test [2] (FIG. 8), the “concentration with significant suppression of PDGF-induced migration” value is not below 0.1 nM. Moreover, the “suppressive action” value in test [3] was “significant suppressive action”. The “action on the PDGF-induced migration” value in test [1] is listed as “potent inhibitory action”.
For `CC(C)(N)C(=O)N[C@H](COCc1ccccc1)C(=O)N1CCC2(CC1)CN(S(C)(=O)=O)c1ccccc12` [MK-0677, ibutamorelin methanesulfonate], in test [1], the “action on the PDGF-induced migration” value is listed as “potent inhibitory action” and the “suppressive action” value is “significant suppressive action”.
With `CNC(=O)[C@@H](Cc1ccccc1)N(C)C(=O)[C@@H](Cc1ccc2ccccc2c1)N(C)C(=O)/C=C/CC(C)(C)N` [NN-703, tabimorelin], in test [1], the “action on the PDGF-induced migration” value was “potent inhibitory action” and the “suppressive action” value is listed as “significant suppressive action”.
The corresponding values for `Cc1[nH]c2ccccc2c1C[C@@H](NC(=O)[C@@H](N)Cc1cnc[nH]1)C(=O)N[C@@H](C)C(=O)N[C@@H](Cc1c[nH]c2ccccc12)C(=O)N[C@H](Cc1ccccc1)C(=O)N[C@@H](CCCCN)C(N)=O` [hexarelin] (H-H[dTrp(2-Me)]AW[dF]K-NH2) are “potent inhibitory action” and “significant suppressive action”.
With “GH: recombinant human growth hormone (Wako Pure Chemical Industries, Ltd.)”, the “action on the PDGF-induced migration” value in test [1] is given as “no action”. In test [1] (at 0.1 μg/mL), the “action on PDGF-induced migration” value was “no action”.
With “GHRH: human-type growth-hormone releasing hormone (Peptide Institute, Inc.) (YADAIFTNSYRKVLGQLSARKLLQDIMSRQQGESNQERGARARL; ends and bridges not checked; UniProt P01286 32-75, looked up)”, the “action on the PDGF-induced migration” value in test [1] is listed as “no action”. Moreover, the “action on PDGF-induced migration” value in test [1] (at 10 nM) was “no action”.
Consider GHRP-6, for which, in test [1], the “action on the PDGF-induced migration” value was “potent inhibitory action” and the “suppressive action” value was “significant suppressive action”.
Take ghrelin: in test [2] (FIG. 9), the “suppression of PDGF-induced migration” value was “This action was also verified”. Moreover, the “suppressive action” value in test [3] was “significant suppressive action”. In addition, the “action on the PDGF-induced migration” value in test [1] is given as “potent inhibitory action”.
